Patent publication US6458806B1, “Aryl alkenamides derivatives as MCP-1 antagonists” (Millennium Pharmaceuticals, Inc., priority 1996, dated 2002)
pIC50: −log10 of the molar value. Structures can show the parent of a compound that is named as a salt.

Target: T1, MCP-1 receptor (Homo sapiens, UniProt P41597)
T1 construct: host or cells: THP-1 cell membranes
Assay: MCP-1 binding assay (125I-MCP-1, THP-1 cell membranes)
Details: 0.2 nM 125I-labeled MCP-1, averages of several or two experiments, read-out: Inhibition Of MCP-1 Binding IC50
Experimental: Membranes used in the MCP-1 binding assay were prepared from THP-1 cells (human monocytic cell line source—American Type Culture Collection, Tumor Immunology Bank #202, Rockville, Md., accession no. ATCC TIB 202). Cells were harvested by centrifugation and washed twice in ice-cold PBS (phosphate-buffered saline) and the cell pellet was frozen at −80° C. in some cases. Cells were resuspended in ice-cold lysis buffer 5mM HEPES (2-(4N-,[2-hydroxyethyl] piperazin-1-yl)-N′-(2-ethanesulfonic acid), pH 7.5, 2 mM EDTA (ethylenediaminetetraacetic acid), 5 ug/ml each leupeptin, aprotinin, chymostatin (protease inhibitors), and 100 ug/ml PMSF (phenylmethane sulfonyl fluoride—also a protease inhibitor)) at a concentration of 5×10^7 cells/ml. […] Typical binding assays used 10-20 ug/well of total membrane protein as determined with a standard protein assay (e.g. BioRad, Richmond, Calif.).
For binding, 10-20 ug total membrane protein were included in the binding reaction along with 0.2 nM I^125-labeled MCP-1 (Amersham, Arlington Heights, Ill.) with or without unlabeled competitor MCP-1 (Peprotech, Rocky Hill, N.J.) (at 250-500 nM). […] Filters were dried and counted in a Beta-Plate scintillation counter using standard scintillation fluid. […]
IC50s were calculated using a non-linear 3-parameter logistic curve fit. […]

T1 sequence (P41597 whole entry): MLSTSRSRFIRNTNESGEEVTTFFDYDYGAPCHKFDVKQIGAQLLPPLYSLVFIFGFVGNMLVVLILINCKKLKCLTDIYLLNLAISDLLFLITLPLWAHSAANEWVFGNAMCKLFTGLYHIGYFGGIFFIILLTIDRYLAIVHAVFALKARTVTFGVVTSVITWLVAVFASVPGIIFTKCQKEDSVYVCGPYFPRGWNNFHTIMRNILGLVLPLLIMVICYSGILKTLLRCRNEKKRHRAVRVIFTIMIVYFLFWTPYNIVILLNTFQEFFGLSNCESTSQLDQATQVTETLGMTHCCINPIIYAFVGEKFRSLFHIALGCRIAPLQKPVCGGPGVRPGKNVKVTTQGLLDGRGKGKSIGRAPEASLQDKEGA

pIC50	Structure (SMILES)
4.97	O=C(C=CC=Cc1ccc(Cl)c(Cl)c1)NCCCN1CCOCC1 [Example 2, 5-(3,4-Dichloro-phenyl)-penta-2,4-dienoic Acid (3-morpholin-4-yl-propyl)-amide]

System: not given
Assay: not given
Details: not given

Structure (SMILES)	melting point [°C]
O=C(C=CC=Cc1ccc(Cl)c(Cl)c1)NCCCN1CCOCC1 [Example 2, 5-(3,4-Dichloro-phenyl)-penta-2,4-dienoic Acid (3-morpholin-4-yl-propyl)-amide]	130 to 132
CC(/C=C/c1ccc(Cl)c(Cl)c1)=C\C(=O)NCCCN1CCCCC1 [Example 19, (2E,4E)-5-(3,4-Dichloro-phenyl)-3-methyl-penta-2,4-dienoic Acid (3-piperidin-1-yl-propyl)-amide]	165 to 170
O=C(/C=C/C=C(c1ccccc1)c1ccccc1)NCCCN1CCCCC1 [Example 22, (2E) -5,5-Diphenyl-penta-2,4-dienoic acid (3-piperidin-1-yl-propyl)-amide]	55 to 65
C/C(=C\C=C\C(=O)NCCCN1CCCCC1)c1ccc(Cl)c(Cl)c1 [Example 21, (2E,4E)-5-(3,4-Dichloro-phenyl)-hexa-2,4-dienoic Acid (3-piperidin-1-yl-propyl)amide]	65 to 70
O=C(/C=C/C=C/c1cc(Cl)cc(Cl)c1)NCCCN1CCCCC1 [Example 16, (2E,4E)-5-(3,5-Dichloro-phenyl)-penta-2,4-dienoic Acid (3-piperidin-1-yl-propyl)-amide]	186 to 187
O=C(/C=C/C=C/c1ccc(Cl)cc1Cl)NCCCN1CCCCC1 [Example 17, (2E,4E)-5-(2,4-Dichloro-phenyl)-penta-2,4-dienoic Acid (3-piperidin-1-yl-propyl)-amide]	66 to 69
CC(=C/C(=O)NCCCN1CCCCC1)/C=C/c1ccc(Cl)c(Cl)c1 [Example 20, (2Z,4E)-5-(3,4-Dichloro-phenyl)-3-methyl-penta-2,4-dienoic Acid (3-piperidin-1-yl-propyl)-amide]	50 to 60

Results, then the compound that gave them:

melting point [°C]	Structure (SMILES)
225 to 226	O=C(/C=C/C=C/c1ccc([N+](=O)[O-])cc1)NCCCN1CCCCC1 [Example 11, (2E,4E)-5-(4-Nitro-phenyl)-penta-2,4-dienoic Acid (3-piperidin-1-yl-propyl)-amide]
40 to 50	Cc1ccc(/C=C/C=C/C(=O)NCCCN2CCCCC2)cc1 [Example 9, (2E,4E)-5-p-Tolyl-penta-2,4-dienoic Acid (3-piperidin-1-yl-propyl)-amide]
69 to 73	COc1ccc(/C=C/C=C/C(=O)NCCCN2CCCCC2)cc1 [Example 10, (2E,4E)-5-(4-Methoxy-phenyl)-penta-2,4-dienoic Acid (3-piperidin-1-yl-propyl)-amide]
150 to 156	O=C(/C=C/C=C/c1ccc2ccccc2c1)NCCCN1CCCCC1 [Example 15, (2E,4E)-5-Naphthalen-2-yl-penta-2,4-dienoic Acid (3-piperidin-1-yl-propyl)-amide]
165 to 168	O=C(/C=C/C=C/c1ccc(-c2ccccc2)cc1)NCCCN1CCCCC1 [Example 14, (2E,4E)-5-Biphenyl-4-yl-penta-2,4-dienoic Acid (3-piperidin-1-yl-propyl)-amide]
192 to 194	O=C(/C=C/C=C/c1ccc(Cl)c(Cl)c1)NCCCN1CCCCC1 (as salt: HCl) [Example 1, 5-(3,4-Dichloro-phenyl)-penta-2,4-dienoic Acid (3-piperidin-1-yl-propyl)-amide-HCl]
111 to 115	O=C(/C=C/C=C/c1ccccc1)NCCCN1CCCCC1 [Example 13, (2E,4E)-5-Phenyl-penta-2,4-dienoic Acid (3-piperidin-1-yl-propyl)-amide]
60 to 62	O=C(/C=C/C=C/c1ccc(Cl)cc1)NCCCN1CCCCC1 [Example 12, (2E,4E)-5-(4-Chloro-phenyl)-penta-2,4-dienoic Acid (3-piperidin-1-yl-propyl)-amide]
